Results reported in patent US5010076A, “1,7-fused 1H-indole-2-carboxylic acid-N-(1,4-benzodiazepin-3-yl)amides” (Kali-Chemie Pharma GmbH, priority 1989, dated 1991).

Columns and labels:
[1] = tested on: CCK-induced disturbance of stomach emptying; experiment: effect of test substances on CCK-induced disturbances of emptying of the stomach (charcoal transport into duodenum); assay type: in vivo, mouse (female NMRI)
Protocol: Doses of CCK lead to substantial blockade of the transpyloric transport of chyme from the stomach into the duodenum. The ability of the test substances to eliminate this blocking effect of CCK was investigated.
Female NMRI mice having body weights of 20-25 g were used in groups of ten animals each. […] A control group received only the Tylose® solution or the solution containing the solubilizer polyethylene glycol in each case. 60 minutes later the animals were given a subcutaneous injection of 80 Ig/kg CCK-8. After a further 5 minutes the animals were each orally administered 0.3 ml of a charcoal suspension (5% charcoal in 2% strength Tylose solution). The mice were sacrificed 5 minutes later and subsequently dissected. They were examined to find whether charcoal suspension had advanced into the duodenum.
The percentage of animals in which the CCK effect was eliminated and charcoal suspension was found in the duodenum after administration of the test substances was determined.

[2] = tested on: CCK-induced gallbladder emptying; experiment: inhibitory effect of test substances on CCK-induced gallbladder emptying (gallbladder weight); assay type: in vivo, mouse (female NMRI)
Protocol: CCK causes a contraction of the muscles of the gallbladder and thus an emptying of the gallbladder. […] Intraperitoneal doses of 0.1 μg/kg CCK-8 may result in the weight of the gallbladders decreasing to about 1/10 of the original weight.
Female NMRI mice having a body weights of 20-25 g were used in groups of 10 animals each. After withdrawal of feed for 24 hours (drinking water ad libitum) the animals received an oral dose of the test substance suspended in a volume of 10 ml/kg of body weight of a 1% strength Tylose® solution (=methylcellulose) or in a volume of 10 ml/kg of body weight of a solubilizer solution which contained 5% glycerol, 87% polyethylene glycol 400, and 8% water. Two control groups each received only the Tylose® solution or the solution containing the solubilizer polyethylene glycol. One of the control groups and all the animals treated with test substance received 0.1 Ig/kg CCK-8 injected i.p. 60 minutes later.
The mice were sacrificed 5 minutes after the CCK-8 administration, and the gallbladders were excised and weighed.
The following Table C lists the percentage inhibition of the CCK-8 effect on gallbladder weights caused by the test substances.

[3] = biological target: T1, peripheral CCK receptors (pancreas) (Rattus norvegicus, UniProt P30551); experiment: peripheral CCK receptor binding affinity on rat pancreas homogenate (inhibition of 3[H]-CCK-8 binding); set-up: species or system rat (male Wistar); conditions: 0.3 nM 3[H]-CCK-8, 90 min, 25° C., pH 7.4, calculated from IC50 by Cheng-Prusoff, read-out: In vitro binding to peripheral CCK receptors (pancreas) pKi values (converted)
T1 construct: Whole pancreas glands from male Wistar rats with a body weight of 150-300 g; from tissue; host or cells: whole pancreas glands of male Wistar rats, washed homogenate
T1 sequence (P30551 1-444): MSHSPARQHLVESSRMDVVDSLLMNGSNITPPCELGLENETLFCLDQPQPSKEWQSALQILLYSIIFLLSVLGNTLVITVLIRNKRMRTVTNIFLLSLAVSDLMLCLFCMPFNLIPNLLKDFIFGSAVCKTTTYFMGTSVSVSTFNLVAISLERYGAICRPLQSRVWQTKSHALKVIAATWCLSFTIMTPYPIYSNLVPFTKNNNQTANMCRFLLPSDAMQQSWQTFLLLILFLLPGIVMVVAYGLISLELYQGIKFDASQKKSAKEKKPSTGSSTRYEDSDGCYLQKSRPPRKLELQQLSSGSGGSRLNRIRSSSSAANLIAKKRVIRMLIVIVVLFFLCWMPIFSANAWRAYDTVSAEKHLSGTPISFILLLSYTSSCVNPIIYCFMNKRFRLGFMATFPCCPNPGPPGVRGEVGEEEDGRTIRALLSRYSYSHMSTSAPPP
Protocol: The affinity of the compounds of formula I for peripheral CCK receptors was measured in vitro on rat pancreas homogenate. The inhibition of the binding of the physiologically relevant octopeptide CCK-8 to peripheral CCK receptors by the test substances was determined.
The receptor binding studies were carried out by a modification of the method of van Dijk et al. (J. Neuroscience 4 (1984), 1021-1033), using soya bean trypsin inhibitor (=SBTI) as protease inhibitor. ^3 [H]-CCK-8, code TRK 775, from Amersham Int., having a specific activity of 60-90 Ci/mmol, was used as tritium-labelled CCK-8.
Whole pancreas glands from male Wistar rats with a body weight of 150-300 g, which had been sacrificed by decapitation, were freed of fatty tissue and homogenized for 15 seconds in a 50-fold volume of an ice-cold test buffer solution (10 mmol 2-[4-(2-hydroxyethyl)-piperazin-1-yl]-ethanesulfonic acid (=HEPES), 130 mmol sodium chloride, 5 mmol magnesium chloride, 0.02% bacitracins, 0.01% SBTI, pH 7.4) with a Kinematica Polytron type homogenizer. The homogenates were then centrifuged at 48,000 g for 10 minutes. This washing method was repeated. After the last centrifugation, the residue which was obtained each time in the form of a pellet was suspended in a 550-fold volume of the test buffer solution and immediately used for the measurement.
For the binding test, 500 μl of the tissue homogenate were incubated with 50 μl of test buffer solution or 50 μl of a solution of the compound to be investigated and with 50 μl of a ^3 [H]-CCK-8 solution (final concentration 0.3 nM). The non-specific binding was assumed to be 0.1 μmol CCK-8. The incubation lasted 90 minutes at 25° C. All the compounds were measured 3 times at each of several concentrations.
Aqueous solutions were employed as test substance solutions and were prepared by appropriate dilution of 60×10^-4 molar aqueous stock solutions. Test substances which are sparingly soluble in water were first dissolved in 96% ethanol, and this solution was diluted with sufficient water for the ethanol concentration not to exceed 1.6% by volume in the solution to be tested.
Bound and free ^3 [H]-CCK-8 were separated by filtration through glass fiber filters. The filters were washed twice with 3 ml of HEPES solution each time and then placed in the scintillation solution (SAVE scintillation solution from Packard) in the dark overnight and counted in a Packard TriCarb 1500™liquid scintillation counter. The IC50 of the respective test substance was determined to be that concentration which caused a 50% inhibition of the specific binding of tritiated CCK-8 to the receptors. From this, the corresponding pKi value was calculated using the Cheng-Prusoff equation. […]

[4] = determination of the minimum toxic dose; assay type: in vivo, mouse (male); conditions: mouse, oral; lowest dose causing death or serious symptoms of toxicity; max 300 mg/kg; 24 h
Protocol: Male mice weighing 20-25 g were given maximum oral doses of 300 mg/kg of the test substance. The animals were observed carefully for three hours for symptoms of toxicity. In addition, all symptoms and deaths were recorded for a period of 24 hours after administration. Concomitant symptoms were likewise observed and recorded. If death or serious symptoms of toxicity were observed, further mice were given increasingly lower doses. The lowest dose which caused death or serious symptoms of toxicity is indicated in the following Table A as the minimum toxic dose.

[5] = dose 0.215 μmol/kg mouse oral, CCK-8 s.c. 60 min later
[6] = dose 10 μmol/kg mouse oral, CCK-8 i.p. 60 min later
[7] = dose 100 μmol/kg mouse oral, CCK-8 i.p. 60 min later
[8] = dose 1.0 μmol/kg mouse oral, CCK-8 s.c. 60 min later

SMILES | % of Animals in which the CCK Effect was Eliminated [1, 5] [%] | % Inhibition of CCK-induced Gallbladder Emptying ([2]; dose 1 μmol/kg mouse oral, CCK-8 i.p. 60 min later) [%] | % Inhibition of CCK-induced Gallbladder Emptying [2, 6] [%] | Ki [3] [nM] | Minimum toxic dose [4] [mg/kg] | % of Animals in which the CCK Effect was Eliminated ([1]; dose 0.681 μmol/kg mouse oral, CCK-8 s.c. 60 min later) [%] | % Inhibition of CCK-induced Gallbladder Emptying ([2]; dose 4.6 μmol/kg mouse oral, CCK-8 i.p. 60 min later) [%] | % Inhibition of CCK-induced Gallbladder Emptying [2, 7] [%] | % of Animals in which the CCK Effect was Eliminated [1, 8] [%] | % of Animals in which the CCK Effect was Eliminated ([1]; dose 0.10* μmol/kg mouse oral, * = administered in solution containing solubilizer (PEG 400)) [%] | % Inhibition of CCK-induced Gallbladder Emptying ([2]; dose 0.1* μmol/kg mouse oral, * = administered in solution containing solubilizer) [%]
COc1ccc2c(c1)N(C)C(=O)C(NC(=O)c1cc3cccc4c3n1CCC4)N=C2c1ccccc1 (stereo not drawn) [Example 1, 3-[(4H-Pyrrolo[3,2,1-ij]-5,6-dihydroquinoline-2-carbonyl)-amino]-8-methoxy-1-methyl-2-oxo-5-phenyl-1H-2,3-dihydro-1,4-benzodiazepine] | 50 | < 25 | 66 | 1.35 | > 300 | – | – | – | – | – | –
CN1C(=O)C(NC(=O)c2cc3cccc4c3n2CCC4)N=C(c2ccccc2)c2ccccc21 (stereo not drawn) [Example 6, 3-[(4H-Pyrrolo[3,2,1-ij]-5,6-dihydroquinoline-2-carbonyl)-amino]-1-methyl-2-oxo-5-phenyl-1H-2,3-dihydro-1,4-benzodiazepine] | – | – | 73 | 3.24 | – | 40 | – | – | – | – | –
COc1ccc2c(c1)N(C)C(=O)C(NC(=O)c1cc3cccc4c3n1CCC4)N=C2c1ccccc1F (stereo not drawn) [Example 9] | 50 | – | – | 0.794 | > 300 | – | < 25 | 99 | – | – | –
COc1ccc2c(c1)N(C)C(=O)C(NC(=O)c1cc3cccc4c3n1CCC4)N=C2c1ccc(F)cc1F (stereo not drawn) [Example 15] | – | – | < 25 | 1.23 | – | – | – | 100 | 57 | 90 | < 25
CN1C(=O)C(NC(=O)c2cc3cccc4c3n2CCC4)N=C(c2c(F)cccc2F)c2ccccc21 (stereo not drawn) [Example 20] | – | – | 25 | 0.851 | > 300 | – | – | – | 50 | – | –
CN1C(=O)C(NC(=O)c2cc3cccc4c3n2CC4)N=C(c2ccccc2)c2ccccc21 (stereo not drawn) [Example 33] | – | – | 19 | 3.72 | > 300 | – | – | – | 50 | – | –
